Results: patent US20260250250A1, “3-(SULPHONYL OR SULFONIMIDOYL)PROP-2-EN-1-YL]-2-OXO-1,2-DIHYDROPYRIDINE-3-CARBOXAMIDE DERIVATIVES” (Flinder Therapeutics B.V., priority 2022, published 2026)

Key:
[1] = tested on: bladder carcinoma RT4 cell line; test: TNF-α-induced cytotoxicity assay (CellTiter-Glo viability); type: cell-based; details: Homo sapiens, RT-4, 72 h
How it was run: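 RT4 bladder carcinoma cells, 1000 per well, stimulated with 1.25 ng/mL TNFα together with compound for 72 h at 37° C., 5% CO2. Viability read by CellTiter-Glo luminescence, proportional to cellular ATP, as a measure of HOIP-dependent cytotoxicity.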

NF-κB signaling pathway = test: Cell-based dual luciferase NF-κB reporter assay (HEK293 cells, TNF stimulated); details: Homo sapiens, HEK293
How it was run: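 HEK293 cells transfected with Firefly luciferase and NF-κB-response-element NanoLuc plasmids; compounds at 100–0.005 µM in 1% DMSO. Cells stimulated with 2.5 ng/mL TNF 30 min after compound addition. Firefly and NanoLuc activities read after 6 h by Nano-Glo dual-luciferase detection.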

[2] = target: T1, human E3 ubiquitin-protein ligase RNF31 (HOIP) (Homo sapiens, UniProt Q96EP0); test: Cell-free HTRF-based HOIP inhibition assay; type: biochemical
T1 sequence (Q96EP0 695-1072 limits assumed): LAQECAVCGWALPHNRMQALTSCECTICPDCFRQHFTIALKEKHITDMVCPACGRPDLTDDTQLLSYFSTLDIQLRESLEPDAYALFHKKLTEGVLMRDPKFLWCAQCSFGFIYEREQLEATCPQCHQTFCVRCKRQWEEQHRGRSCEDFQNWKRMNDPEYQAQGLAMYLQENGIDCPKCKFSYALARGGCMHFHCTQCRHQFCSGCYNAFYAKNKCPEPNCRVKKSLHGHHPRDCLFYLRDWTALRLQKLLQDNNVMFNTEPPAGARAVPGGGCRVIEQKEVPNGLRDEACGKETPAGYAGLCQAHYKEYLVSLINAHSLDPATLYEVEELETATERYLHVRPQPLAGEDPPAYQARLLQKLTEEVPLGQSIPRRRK
How it was run: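 Recombinant human HOIP fragment (E. coli) preincubated with compounds (100-0.005 μM, 1% DMSO) and E1 for 1 h at 25° C. E2 and substrates then added; reaction 2.5 h at 25° C. HTRF read-out, excitation 337 nm, emissions 665/620 nm.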

IC50 (NF-κB signaling pathway) [µM]	IC50 [2] [µM]	SMILES	IC50 [1] [µM]
≤ 1	≤ 0.1	N#Cc1ccc(S(=N)(=O)/C=C/CNC(=O)c2cc3c([nH]c2=O)CCCC3)cc1 (stereo not drawn) [Example 136, N-[(2E)-3-[(4-cyanophenyl)(imino)oxo-λ^6-sulfanyl]prop-2-en-1-yl]-2-oxo-1,2,5,6,7,8-hexahydroquinoline-3-carboxamide]	≤ 10
≤ 1	≤ 1	COc1ccc(S(=N)(=O)/C=C/CNC(=O)c2cc3c([nH]c2=O)CCCC3)cc1C (stereo not drawn) [Example 137, N-[(2E)-3-[imino(4-methoxy-3-methylphenyl)oxo-λ^6-sulfanyl]prop-2-en-1-yl]-2-oxo-1,2,5,6,7,8-hexahydroquinoline-3-carboxamide]	≤ 1
≤ 1	≤ 1	CC(C)Oc1ccc(S(=N)(=O)/C=C/CNC(=O)c2cc3c([nH]c2=O)CCCC3)cc1 (stereo not drawn) [Example 138, N-[(2E)-3-[imino(oxo)[4-(propan-2-yloxy)phenyl]-λ^6-sulfanyl]prop-2-en-1-yl]-2-oxo-1,2,5,6,7,8-hexahydroquinoline-3-carboxamide]	≤ 1
≤ 1	≤ 1	COc1ccc(S(=N)(=O)/C=C/CNC(=O)c2cc3c([nH]c2=O)CCCC3)c(C)c1 (stereo not drawn) [Example 139, N-[(2E)-3-[imino(4-methoxy-2-methylphenyl)oxo-λ^6-sulfanyl]prop-2-en-1-yl]-2-oxo-1,2,5,6,7,8-hexahydroquinoline-3-carboxamide]	≤ 1
≤ 1	≤ 1	N=S(=O)(/C=C/CNC(=O)c1cc2c([nH]c1=O)CCCC2)c1ccc(Oc2ccccc2)cc1 (stereo not drawn) [Example 140, N-[(2E)-3-[imino(oxo)(4-phenoxyphenyl)-λ^6-sulfanyl]prop-2-en-1-yl]-2-oxo-1,2,5,6,7,8-hexahydroquinoline-3-carboxamide]	≤ 1
≤ 1	≤ 1	COc1ccc(S(=N)(=O)/C=C/CNC(=O)c2cc3c([nH]c2=O)CCC(C)C3)cc1F (stereo not drawn) [Example 142, N-[(2E)-3-[(3-fluoro-4-methoxyphenyl)(imino)oxo-λ^6-sulfanyl]prop-2-en-1-yl]-6-methyl-2-oxo-1,2,5,6,7,8-hexahydroquinoline-3-carboxamide]	≤ 1
≤ 1	≤ 0.1	COc1ccc(S(=N)(=O)/C=C/CNC(=O)c2cc3ccccc3[nH]c2=O)cc1F (stereo not drawn) [Example 143, N-[(2E)-3-[(3-fluoro-4-methoxyphenyl)(imino)oxo-λ^6-sulfanyl]prop-2-en-1-yl]-2-oxo-1,2-dihydroquinoline-3-carboxamide]	≤ 1
≤ 100	≤ 1	COc1ccc(S(=N)(=O)/C=C/CNC(=O)c2cc3c([nH]c2=O)CCOC3)cc1F (stereo not drawn) [Example 145, N-[(2E)-3-[(3-fluoro-4-methoxyphenyl)(imino)oxo-λ^6-sulfanyl]prop-2-en-1-yl]-2-oxo-1H,2H,5H,7H,8H-pyrano[4,3-b]pyridine-3-carboxamide]	≤ 10
≤ 1	≤ 0.1	N=S(=O)(/C=C/CNC(=O)c1cc2c([nH]c1=O)CCCC2)c1cccc(Oc2ccccc2)c1 (stereo not drawn) [Example 146, N-[(2E)-3-[imino(oxo)(3-phenoxyphenyl)-λ^6-sulfanyl]prop-2-en-1-yl]-2-oxo-1,2,5,6,7,8-hexahydroquinoline-3-carboxamide]	≤ 1
≤ 10	≤ 1	COc1ccc(S(=N)(=O)/C=C/CNC(=O)c2cc3c([nH]c2=O)CCC(C(F)(F)F)C3)cc1F (stereo not drawn) [Example 147, N-[(2E)-3-[(3-fluoro-4-methoxyphenyl)(imino)oxo-λ^6-sulfanyl]prop-2-en-1-yl]-2-oxo-6-(trifluoromethyl)-1,2,5,6,7,8-hexahydroquinoline-3-carboxamide]	≤ 10
